According to patent US20230052403A1, “MIXTURES COMPRISING A SOLID CARRIER COMPRISING AN UREASE INHIBITOR AND A FURTHER SOLID CARRIER COMPRISING A NITRIFICATION INHIBITOR” (BASF SE, priority 2020, published 2023):
Like-named read-outs stand apart in the source and are kept apart here.

System: urease
Procedure: The urea-stabilizing effect detected as the volatile NH3 losses from soil surface applied urea:
176 g air dried soil is filled into 500 mL laboratory bottle, which is then be watered with de-ionized water up to 50% of its water holding capacity and incubated at room temperature (about 21° C.) for 24 h.
Urea granules are evenly distributed on the soil in each bottle. Each granule is treated with 5 μL of the respective products, containg the compositions and mixtures of the invention in the appropriate concentrations. N amount applied was 80 mg per bottle.
NH3 free air blows constantly at a rate of about 4 L per min. through the bottle which bubbles through a scrubber solution which is periodically renewed and analyzed for NH4^+ with an autoanalyzer.

## CCCCNP(N)(N)=S [NBPT, N-(n-butyl)thiophosphoric acid triamide]
Piammon, UI and DMPP on the same granules
  reduction of NH3—N losses (UI effect), in words: Nearly no reduction of NH3—N losses
UI and DMPP on the same Piammon granules
  stability of the urease inhibitor, in words: destroyed by DMPP
UI and DMPP on the same urea granules
  stability of the urease inhibitor, in words: destroyed by DMPP
UI applied on Piammon granules only as well as mixed with DMPSA-treated AS granules
  reduction of NH3—N losses (UI effect), in words: Significant reduction of NH3—N losses
UI applied on urea granules only and mixed with DMPP-treated AS granules
  reduction of NH3—N losses (UI effect), in words: Significant reduction of NH3—N losses
UI applied on urea granules only and mixed with DMPP-treated urea granules
  reduction of NH3—N losses (UI effect), in words: Significant reduction of NH3—N losses
UI applied on urea granules only as well as mixed with DMPSA-treated urea granules
  reduction of NH3—N losses (UI effect), in words: Significant reduction of NH3—N losses
urea, UI and DMPP on the same urea granules
  reduction of NH3—N losses (UI effect), in words: No reduction of NH3—N losses
